From PubChem BioAssay AID342 (DTP/NCI, 2004)
Several values for one entry are separate records, joined by “and”; a condition that tells them apart may be missing. Equal values may be shown once.

System: Swiss mice, Sarcoma 180 sc, mean tumor weight T/C
Assay: NCI In Vivo Anticancer Drug Screen. Data for tumor model Sarcoma 180 (subcutaneous) in Swiss mice
Conditions: endpoint: mean tumor weight, higher = larger tumour
Method in brief: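 T/C ratio: treated over vehicle-treated controls, measuring survival or tumor size in transplanted-tumor mice.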

With `C[C@]12C=CC(=O)C=C1CC[C@@H]1[C@@H]2[C@@H](O)C[C@@]2(C)[C@H]1CC[C@]2(O)C(=O)CF` as the compound, how does the T/C (dose: 6.0 mg/kg/injection, schedule: Q01DX007 (sc), vehicle: steriod suspending solution) read?
The T/C was 77 % of control.

What about the T/C (dose: 9.0 mg/kg/injection, schedule: Q01DX007 (sc), vehicle: steriod suspending solution) of the same compound?
Its T/C is 91 % of control.

What about the T/C (dose: 13.3 mg/kg/injection, schedule: Q01DX007 (sc), vehicle: steriod suspending solution) of the same compound?
The T/C was 82 % of control.

And the T/C (dose: 20.0 mg/kg/injection, schedule: Q01DX007 (sc), vehicle: steriod suspending solution)?
The T/C was 35 % of control and 49 % of control and 54 % of control.

What about the T/C (dose: 45.0 mg/kg/injection, schedule: Q01DX007 (sc), vehicle: steriod suspending solution) of the same compound?
The T/C was 32 % of control.

What about the T/C (dose: 70.0 mg/kg/injection, schedule: Q01DX007 (sc), vehicle: steriod suspending solution) of the same compound?
Its T/C is 27 % of control and 32 % of control and 36 % of control.

And the T/C (dose: 107.0 mg/kg/injection, schedule: Q01DX007 (sc), vehicle: steriod suspending solution)?
The T/C was 32 % of control.

And the T/C (dose: 158.0 mg/kg/injection, schedule: Q01DX007 (sc), vehicle: steriod suspending solution)?
The T/C was 36 % of control.

What about the T/C (dose: 160.0 mg/kg/injection, schedule: Q01DX007 (sc), vehicle: steriod suspending solution) of the same compound?
The T/C was 24 % of control.

And the T/C (dose: 352.0 mg/kg/injection, schedule: Q01DX007 (sc), vehicle: steriod suspending solution)?
Its T/C is 52 % of control.

What about the T/C (dose: 358.0 mg/kg/injection, schedule: Q01DX007 (sc), vehicle: steriod suspending solution) of the same compound?
Its T/C is 33 % of control.

And the T/C (dose: 360.0 mg/kg/injection, schedule: Q01DX007 (sc), vehicle: steriod suspending solution)?
The T/C was 33 % of control.

And the T/C (dose: 537.0 mg/kg/injection, schedule: Q01DX007 (sc), vehicle: steriod suspending solution)?
Its T/C is 39 % of control and 56 % of control.

And the T/C (dose: 540.0 mg/kg/injection, schedule: Q01DX007 (sc), vehicle: steriod suspending solution)?
Its T/C is 20 % of control and 22 % of control.

And the T/C (dose: 801.0 mg/kg/injection, schedule: Q01DX007 (sc), vehicle: steriod suspending solution)?
Its T/C is 49 % of control.

And the T/C (dose: 1202.0 mg/kg/injection, schedule: Q01DX007 (sc), vehicle: steriod suspending solution)?
Its T/C is 61 % of control.

Which T/C (dose: 25.0 mg/kg/injection, schedule: Q#A X014 (ip), vehicle: methylcellulose (MC)) does the source give for `CO[C@@H]1[C@@H](OC2OC(C)C(OC3CC(C)(O)C(OC(=O)CC(C)C)C(C)O3)C(N(C)C)C2O)[C@@H](CC=O)C[C@@H](C)C(=O)/C=C/C2O[C@H]2C[C@@H](C)OC(=O)C[C@H]1OC(C)=O` (stereo partly drawn) here?
The T/C was 86 % of control.

And the T/C (dose: 50.0 mg/kg/injection, schedule: Q#A X014 (ip), vehicle: methylcellulose (MC))?
Its T/C is 116 % of control.

And the T/C (dose: 75.0 mg/kg/injection, schedule: Q#A X014 (ip), vehicle: methylcellulose (MC))?
Its T/C is 88 % of control.

What about the T/C (dose: 100.0 mg/kg/injection, schedule: Q#A X014 (ip), vehicle: methylcellulose (MC)) of the same compound?
The T/C was 95 % of control.

What about the T/C (dose: 100.0 mg/kg/injection, schedule: Q#A X014 (ip), vehicle: other) of the same compound?
Its T/C is 96 % of control.

What about the T/C (dose: 125.0 mg/kg/injection, schedule: Q#A X014 (ip), vehicle: methylcellulose (MC)) of the same compound?
Its T/C is 75 % of control.

And the T/C (dose: 125.0 mg/kg/injection, schedule: Q#A X014 (ip), vehicle: other)?
The T/C was 113 % of control.

And the T/C (dose: 150.0 mg/kg/injection, schedule: Q#A X014 (ip), vehicle: other)?
The T/C was 65 % of control.

And the T/C (dose: 175.0 mg/kg/injection, schedule: Q#A X014 (ip), vehicle: other)?
Its T/C is 57 % of control.

Which results are given for `NC(Cc1ccc(N(CCCl)CCCl)cc1)C(=O)O` (stereo not drawn)?
T/C (dose: 0.45 mg/kg/injection, schedule: Q#A X014 (ip), vehicle: carboxymethylcellulose (CMC)): 68 % of control; T/C (dose: 0.62 mg/kg/injection, schedule: Q#A X014 (ip), vehicle: carboxymethylcellulose (CMC)): 83 % of control; T/C (dose: 0.81 mg/kg/injection, schedule: Q01DX007 (ip), vehicle: carboxymethylcellulose (CMC)): 81 % of control; T/C (dose: 0.9 mg/kg/injection, schedule: Q#A X014 (ip), vehicle: carboxymethylcellulose (CMC)): 74 % of control; T/C (dose: 1.0 mg/kg/injection, schedule: Q#A X014 (ip), vehicle: methylcellulose (MC)): 80 % of control; T/C (dose: 1.08 mg/kg/injection, schedule: Q#A X014 (ip), vehicle: carboxymethylcellulose (CMC)): 76 % of control; T/C (dose: 1.25 mg/kg/injection, schedule: Q#A X014 (ip), vehicle: carboxymethylcellulose (CMC)): 78 % of control; T/C (dose: 1.62 mg/kg/injection, schedule: Q01DX007 (ip), vehicle: carboxymethylcellulose (CMC)): 78 % of control; T/C (dose: 1.62 mg/kg/injection, schedule: Q#A X014 (ip), vehicle: carboxymethylcellulose (CMC)): 78 % of control; T/C (dose: 1.8 mg/kg/injection, schedule: Q#A X014 (ip), vehicle: carboxymethylcellulose (CMC)): 60 % of control; T/C (dose: 2.0 mg/kg/injection, schedule: Q#A X014 (ip), vehicle: methylcellulose (MC)): 59 % of control; T/C (dose: 2.16 mg/kg/injection, schedule: Q#A X014 (ip), vehicle: carboxymethylcellulose (CMC)): 51 % of control; T/C (dose: 2.5 mg/kg/injection, schedule: Q#A X014 (ip), vehicle: carboxymethylcellulose (CMC)): 47 % of control; T/C (dose: 2.88 mg/kg/injection, schedule: Q01DX007 (ip), vehicle: carboxymethylcellulose (CMC)): 95 % of control; T/C (dose: 3.25 mg/kg/injection, schedule: Q01DX007 (ip), vehicle: carboxymethylcellulose (CMC)): 32 % of control; T/C (dose: 3.25 mg/kg/injection, schedule: Q#A X014 (ip), vehicle: carboxymethylcellulose (CMC)): 34 % of control; T/C (dose: 3.6 mg/kg/injection, schedule: Q01DX007 (ip), vehicle: carboxymethylcellulose (CMC)): 62 % of control; T/C (dose: 3.6 mg/kg/injection, schedule: Q#A X014 (ip), vehicle: carboxymethylcellulose (CMC)): 31 % of control; T/C (dose: 4.0 mg/kg/injection, schedule: Q#A X014 (ip), vehicle: methylcellulose (MC)): 47 % of control; T/C (dose: 4.8 mg/kg/injection, schedule: Q01DX007 (ip), vehicle: carboxymethylcellulose (CMC)): 42 % of control; T/C (dose: 5.0 mg/kg/injection, schedule: Q#A X014 (ip), vehicle: carboxymethylcellulose (CMC)): 7 % of control; T/C (dose: 7.2 mg/kg/injection, schedule: Q01DX007 (ip), vehicle: carboxymethylcellulose (CMC)): 20 % of control; T/C (dose: 8.0 mg/kg/injection, schedule: Q#A X014 (ip), vehicle: methylcellulose (MC)): 14 % of control

Which results are given for `Cc1cc2c(c3oc(C4(C)OC4C4OC4C)cc(=O)c13)C(=O)c1c(O)c(C3CC(C)(N(C)C)C(O)C(C)O3)cc(C3CC(N(C)C)C(O)C(C)O3)c1C2=O` (stereo not drawn)?
T/C (dose: 0.05 mg/kg/injection, schedule: Q01DX007 (sc), vehicle: other): 100 % of control; T/C (dose: 0.1 mg/kg/injection, schedule: Q01DX007 (sc), vehicle: other): 79 % of control

Which results are given for `CN(C)c1ccc(/C=C\c2ccnc3ccccc23)cc1`?
T/C (dose: 12.5 mg/kg/injection, schedule: Q01DX007 (ip), vehicle: water): 123 % of control; T/C (dose: 16.0 mg/kg/injection, schedule: Q01DX007 (ip), vehicle: methylcellulose (MC)): 118 % of control; T/C (dose: 24.0 mg/kg/injection, schedule: Q01DX007 (ip), vehicle: methylcellulose (MC)): 80 % of control; T/C (dose: 25.0 mg/kg/injection, schedule: Q01DX007 (ip), vehicle: water): 114 % of control; T/C (dose: 36.0 mg/kg/injection, schedule: Q01DX007 (ip), vehicle: methylcellulose (MC)): 66 % of control; T/C (dose: 50.0 mg/kg/injection, schedule: Q01DX007 (ip), vehicle: water): 80 % of control

With `CC(=O)OC(C)(C)/C=C/C(=O)[C@](C)(O)[C@H]1[C@H](O)C[C@@]2(C)[C@@H]3CC=C4[C@@H](C[C@H](O)C(=O)C4(C)C)[C@]3(C)C(=O)C[C@]12C` as the compound, how does the T/C (dose: 0.4 mg/kg/injection, schedule: Q01DX007 (ip), vehicle: saline) read?
Its T/C is 58 % of control.

What about the T/C (dose: 0.8 mg/kg/injection, schedule: Q01DX007 (ip), vehicle: saline) of the same compound?
Its T/C is 84 % of control.
